Source: US20200061092A1, “METHODS AND COMPOSITIONS FOR TREATING DISORDERS ASSOCIATED WITH MUSCLE WEAKNESS” (priority 2018, published 2020)

Assays:
Type in all cases: in vivo, mouse
[1] = system: F-α-DG (functionally glycosylated α-DG); assay: Immunohistochemical staining of F-α-DG with IIH6C4 antibody in muscles of ribitol-treated P448L mice
Protocol: Ribitol was purchased from Sigma (A5502 Adonitol, ≥98%, Sigma, St. Louis) and dissolved in drinking water to the final concentration of 5% or 10%. […] mice aged at 4 weeks were treated with 5% ribitol drinking water for 1 month and […] mice aged at 7 weeks were treated with 5% ribitol drinking water for 3 months and 6 months. All the mice were randomly assigned to either treatment or control groups. And a minimum number of 4 mice were used for each group. No animal was excluded. […] female breeders were given 10% ribitol in drinking water during pregnancy, and pups continued to be treated with 10% ribitol in drinking water until they were euthanized at 19 weeks of age. Untreated age-matched […] and wild-type C57BL/6 mice were used as controls. The animals were terminated at the end of each treatment time point and tissues including heart, diaphragm, TA, quadriceps, liver, spleen and kidney were collected for analyses. […] For immunohistochemical detection of functionally glycosylated α-DG, […] of thickness cross sections of untreated and C57 control, as well as tissues from treated cohorts were included in each slide. Slides were first fixed in ice cold Ethanol:Acetic acid (1:1) for 1 min, blocked with 10% normal goat serum (NGS) in […]-buffer saline (TBS) for 30 min at room temperature, and incubated overnight at 4° C. with primary mouse monoclonal antibody IIH6C4 (EMD Millipore) (1:500) against α-DG. Negative controls received 10% normal goat serum in 1×TBS only. Sections were washed and incubated with secondary AlexaFLuor 488 goat anti-mouse IgM (Invitrogen) (1:500) at room temperature for 2 hr. […] Immunofluorescence was visualized using an Olympus BX51/BX52 fluorescence microscope (Opelco) and images were captured using the Olympus DP70 digital camera system (Opelco). Slides were examined in a blinded manner by the investigator.

FKRP P448L mutant mice = assay: Ribitol toxicity evaluation: body weight, histology of liver, kidney and spleen, serum biochemical markers
Protocol: All animal studies were approved by the Institutional Animal Care and Use Committee (IACUC) of Carolinas Medical Center. All mice were housed in the vivarium of Carolinas Medical Center following animal care guidelines of the institute. Animals were ear tagged prior to group assignment. Food and water were available ad libitum during all phase of the study. Body weight was measured from 6 weeks to 19 weeks of age.
Ribitol was purchased from Sigma (A5502 Adonitol, ≥98%, Sigma, St. Louis) and dissolved in drinking water to the final concentration of 5% or 10%. P448L mice aged at 4 weeks were treated with 5% ribitol drinking water for 1 month and P448L mice aged at 7 weeks were treated with 5% ribitol drinking water for 3 months and 6 months. All the mice were randomly assigned to either treatment or control groups. And a minimum number of 4 mice were used for each group. No animal was excluded. P448L female breeders were given 10% ribitol in drinking water during pregnancy, and pups continued to be treated with 10% ribitol in drinking water until they were euthanized at 19 weeks of age. Untreated age-matched P448L and wild-type C57BL/6 mice were used as controls. The animals were terminated at the end of each treatment time point and tissues including heart, diaphragm, TA, quadriceps, liver, spleen and kidney were collected for analyses.
Frozen tissues were processed for hematoxylin and eosin (H&E) and Masson's Trichrome staining following standard procedures. Muscle cross-sectional fiber equivalent diameter was determined from tibialis anterior and quadriceps stained with H&E using MetaMorph v7.7 Software (Molecular Devices). Percentage of centrally nucleated myofibers were manually quantified from the same tissue sections stained with H&E. Fibrotic area represented by blue staining in the Masson's Trichrome stained sections was quantified from heart, diaphragm, tibialis anterior and quadriceps using ImageJ software. For all the morphometric analyses, a total of 300 to 400 fibers from two representative 20× magnification images per each muscle per animal were used.

[2] = system: FKRP and LARGE transcripts; assay: Quantitative real-time PCR of FKRP and LARGE transcripts in muscles of P448L mice; conditions: 5% ribitol, 3 months (FIG. 11b); cardiac muscle, limb muscle, diaphragm
Protocol: Tissues were collected from heart, diaphragm and tibialis anterior. RNA was extracted using TRIzol (Invitrogen) following the supplied protocol. Final RNA pellet was re-suspended in 20 μl RNAse-nuclease free water. Final RNA concentration was determined using Nanodrop 2000c. One μg of RNA was subsequently converted to cDNA using the High-Capacity RNA-to-cDNA™ Kit (Applied Biosystems) following the supplied protocol. cDNA was then used for quantitative real-time PCR using the mouse FKRP-FAM (Mm00557870_m1) and LARGE-FAM (Mm00521885 ml) taqman assay with primer limited GAPDH-VIC (Mm99999915_g1) as the internal control and TaqMan® Universal Master Mix II, with UNG (Life Technologies). […] Results of FKRP and LARGE transcript were calculated and expressed as 2^-ΔΔCt and compared across tissues and animals.

OC[C@@H](O)[C@@H](O)[C@@H](O)CO [ribitol]
F-α-DG signal by IIH6C4 immunohistochemistry ([1]; 5% ribitol in drinking water, 1 month, 4-week-old P448L mice, heart, diaphragm, limb muscles): visibly increased F-α-DG | F-α-DG levels by IIH6C4 immunofluorescence ([1]; 5% ribitol in drinking water, 3 and 6 months, from 7 weeks of age, all muscles): clear increase in the levels of F-α-DG | Expression of F-α-DG by immunohistochemistry ([1]; 10% ribitol in drinking water from pregnancy to 19 weeks of age): detected in all skeletal muscles and in the cardiac muscle | Histology of liver, kidney and spleen (H&E) (FKRP P448L mutant mice; 5% ribitol, 3 or 6 months): normal structure without degeneration and inflammation | Serum markers of liver and kidney function (ALP, ALT, t-Bil, c-Bil, unc-Bil, BUN, Crea), treated vs untreated (FKRP P448L mutant mice; 5% ribitol, 6 months): No statistical significance | Serum triglycerides (TRG) and glucose (GLU), treated vs untreated (FKRP P448L mutant mice; 5% ribitol, 6 months): similar | Body weight vs age-matched untreated P448L (FKRP P448L mutant mice; 10% ribitol from embryonic stage or 5% ribitol from 7 weeks of age, all time points): No significant difference | Effect on pregnancy, embryo development, body weight and overall behavior (FKRP P448L mutant mice; oral ribitol from pregnancy to adult): does not affect | FKRP and LARGE transcript levels, treated vs untreated [2]: No statistically significant difference
